Drawing on US5162305, this text covers ring closure, isolated yield and ring closure, crude yield for 13 compounds.

The conditions of data set [1]: amide bond, pyridine/DMF.
For data set [2] the following is noted: the molecule shown is the open-chain precursor; amide bond; 20-membered ring; ONp active ester (from TFA-ONp)/pyridine; pyridine/DMF; 5.2 mM; 50.0 °C; 3 steps.

Like-named read-outs stand apart in the source and are kept apart here.

In data set [1] (from H-Acp-Asn-Leu-Ser(Bzl)-Thr(Bzl)-Glu(ONp)-OMe, 24-membered ring, TFA-ONp/pyridine, TFA, pyridine, 55.0 °C, 3 steps), `COC(=O)[C@@H]1CCC(=O)NCCCCCC(=O)N[C@@H](CC(N)=O)C(=O)N[C@@H](CC(C)C)C(=O)N[C@@H](COCc2ccccc2)C(=O)N[C@@H]([C@@H](C)OCc2ccccc2)C(=O)N1` [H-Acp-Asn-Leu-Ser(Bzl)-Thr(Bzl)-Glu(ONp)-OMe] had a ring closure, isolated yield of 45.9%. With “H-Ser(Bzl)-Asn-Leu-Ser(Bzl)-Thr(Bzl)-Glu(ONp)-OBzl?”, the ring closure, crude yield in data set [2] was determined as 62.7%.

Turning to `COC(=O)[C@@H]1CSCCCC(=O)N[C@@H](COCc2ccccc2)C(=O)N[C@@H](CC(N)=O)C(=O)N[C@@H](CC(C)C)C(=O)N[C@@H](COCc2ccccc2)C(=O)N[C@@H]([C@@H](C)OCc2ccccc2)C(=O)N1` [H-Ser(Bzl)-Asn-Leu-Ser(Bzl)-Thr(Bzl)-Cpc(ONp)-OMe], the ring closure, isolated yield in data set [1] (from H-Ser(Bzl)-Asn-Leu-Ser(Bzl)-Thr(Bzl)-Cpc(ONp)-OMe, 23-membered ring, TFA-ONp/pyridine, TFA, pyridine, 55.0 °C, 3 steps) was determined as 55.9%. “H-bAla-Ser(Bzl)-Asn-Leu-Ser(Bzl)-Thr(Bzl)-Asp(ONp)-OEt?” returned a ring closure, isolated yield in data set [1] (the molecule shown is the open-chain precursor, 23-membered ring, p-nitrophenyl ester (from TFA-ONp)/pyridine, 4.6 mM, 50.0 °C, 3 steps) of 49.5%. For the compound `CCOC(=O)[C@@H]1CC(=O)NCCCCCC(=O)N[C@@H](CC(N)=O)C(=O)N[C@@H](CC(C)C)C(=O)N[C@@H](COCc2ccccc2)C(=O)N[C@@H]([C@@H](C)OCc2ccccc2)C(=O)N1` [H-Acp-Asn-Leu-Ser(Bzl)-Thr(Bzl)-Asp(ONp)-OEt], in data set [1] (from H-Acp-Asn-Leu-Ser(Bzl)-Thr(Bzl)-Asp(ONp)-OEt, 23-membered ring, TFA-ONp/pyridine, TFA, pyridine, 55.0 °C, 3 steps), the ring closure, isolated yield came to 26.6%.

In data set [1] (the molecule shown is the open-chain precursor, 25-membered ring, TFA-ONp/pyridine, TFA, pyridine, then N2H4, 55.0 °C, 4 steps), “H-Ser(Bzl)-Asn-Leu-Ser(Bzl)-Thr(Bzl)-Tyr(CH2CO-ONp)-OMe” had a ring closure, isolated yield of 43.8%. As for `CCOC(=O)[C@@H]1CC(=O)NCC(=O)N[C@@H](COCc2ccccc2)C(=O)N[C@@H](CC(N)=O)C(=O)N[C@@H](CC(C)C)C(=O)N[C@@H](COCc2ccccc2)C(=O)N[C@@H]([C@@H](C)OCc2ccccc2)C(=O)N1` [H-Gly-Ser(Bzl)-Asn-Leu-Ser(Bzl)-Thr(Bzl)-Asp(ONp)-OEt], in data set [1] (from H-Gly-Ser(Bzl)-Asn-Leu-Ser(Bzl)-Thr(Bzl)-Asp(ONp)-OEt, 22-membered ring, TFA-ONp/pyridine, TFA, pyridine, 55.0 °C, 3 steps), the ring closure, isolated yield worked out at 61.3%. “H-Ser(Bzl)-Asn-Leu-Ser(Bzl)-Thr(Bzl)-4-CPA(ONp)-OMe?” had a ring closure, isolated yield in data set [1] (the molecule shown is the open-chain precursor, 23-membered ring, p-nitrophenyl ester (from TFA-ONp)/pyridine, 1.33 mM, 50.0 °C, 3 steps) of 53.8%. In data set [1] (from H-Asn-Leu-Ser(Bzl)-Thr(Bzl)-Lys(COCH2CH2CO-ONp)-OMe, 23-membered ring, TFA-ONp/pyridine, TFA, pyridine, 55.0 °C, 3 steps), `COC(=O)[C@@H]1CCCCNC(=O)CCC(=O)N[C@@H](CC(N)=O)C(=O)N[C@@H](CC(C)C)C(=O)N[C@@H](COCc2ccccc2)C(=O)N[C@@H]([C@@H](C)OCc2ccccc2)C(=O)N1` [-COCH2 CH2 Co-Asn-Leu-Ser(Bzl)-Thr(Bzl)-Lys--OCH3] yielded a ring closure, isolated yield of 34.9%. Regarding `COC(=O)[C@@H]1CCCCNC(=O)CCC(=O)N[C@@H](COCc2ccccc2)C(=O)N[C@@H](CC(N)=O)C(=O)N[C@@H](CC(C)C)C(=O)N[C@@H](COCc2ccccc2)C(=O)N[C@@H]([C@@H](C)OCc2ccccc2)C(=O)N1` [H-Ser(Bzl)-Asn-Leu-Ser(Bzl)-Thr(Bzl)-Lys(COCH2CH2CO-ONp)-OMe], in data set [1] (from H-Ser(Bzl)-Asn-Leu-Ser(Bzl)-Thr(Bzl)-Lys(COCH2CH2CO-ONp)-OMe, 26-membered ring, TFA-ONp/pyridine, TFA, pyridine, 2.6 mM, 55.0 °C, 3 steps), the ring closure, isolated yield came to 55.5%.

Compound `COC(=O)[C@@H]1CCC(=O)NCCC(=O)N[C@@H](COCc2ccccc2)C(=O)N[C@@H](CC(N)=O)C(=O)N[C@@H](CC(C)C)C(=O)N[C@@H](COCc2ccccc2)C(=O)N[C@@H]([C@@H](C)OCc2ccccc2)C(=O)N1` [H-βAla-Ser(Bzl)-Asn-Leu-Ser(Bzl)-Thr(Bzl)-Glu(ONp)-OMe] had a ring closure, isolated yield in data set [1] (from H-βAla-Ser(Bzl)-Asn-Leu-Ser(Bzl)-Thr(Bzl)-Glu(ONp)-OMe, 24-membered ring, TFA-ONp/pyridine, TFA, pyridine, 55.0 °C, 3 steps) of 68.1%. For the compound “H-Gly-Ser(Bzl)-Asn-Leu-Ser(Bzl)-Thr(Bzl)-Glu(ONp)-OBzl?”, the ring closure, isolated yield in data set [1] (the molecule shown is the open-chain precursor, 23-membered ring, p-nitrophenyl ester (from TFA-ONp)/pyridine, 1.2 mM, 50.0 °C, 3 steps) was 50.7%.

The compound `COC(=O)[C@@H]1CSCC(=O)N[C@@H](COCc2ccccc2)C(=O)N[C@@H](CC(N)=O)C(=O)N[C@@H](CC(C)C)C(=O)N[C@@H](COCc2ccccc2)C(=O)N[C@@H]([C@@H](C)OCc2ccccc2)C(=O)N1` [H-Ser(Bzl)-Asn-Leu-Ser(Bzl)-Thr(Bzl)-Cmc(ONp)-OMe] yielded a ring closure, isolated yield in data set [1] (from H-Ser(Bzl)-Asn-Leu-Ser(Bzl)-Thr(Bzl)-Cmc(ONp)-OMe, 21-membered ring, TFA-ONp/pyridine, TFA, pyridine, 55.0 °C, 3 steps) of 41%.
